Results taken from patent US20250136649A1, “HONEY TRUFFLE SWEETENER (HTS) VARIANTS” (MYCOTECHNOLOGY, INC., priority 2023, published 2025).
Read-outs that look alike come from different tables or passages of the source.

Legend:
sweet taste = conditions: cited from earlier work; for potency curve multiplier relative to sucrose: linear potency curve similar to sucrose (DuBois 1991)
[1] = test system: sweetness and flavor perception; experiment: Tasting of HTS sweetener blends in citric acid solution, lemon/lime soda, almond milk, chocolate spread; format: in vivo, human
Description: Sucrose is the standard for sweetness intensity perception in the food and beverage industry. […] With regard to the following Examples 18-38, sucrose equivalent (SE) values of non-sucrose sweeteners were calculated from Dubois et al. (1991) and cross referenced with other studies (Wee, M., Tan, V., & Forde, C. (2018). A Comparison of Psychophysical Dose-Response Behaviour across 16 Sweeteners. Nutrients, 10 (11), 1632).
DE Walters, FT Orthoefer, GE DuBois, pp. 261-276. Washington, DC: Am. Chem. Soc).
An HTS sweetness concentration response curve was developed. These values were used to determine approximate sucrose equivalents for the following blending examples (Examples 18-37).
HTS ((0.0 mg/mL, 0.007 mg/mL, 0.015 mg/mL and 0.035 mg/mL) and sucrose (8% w/w, 6% w/w, 4% w/w, and 2% w/w (respectively)) were added to a citric acid solution. The sweetener mixture was compared to a control with only sucrose added to the matrix. The sweetener mix was expected to be as sweet as or sweeter than the sucrose control for this matrix. Of total perceived sweetness intensity in each of the experimental samples in Table 11, 75% comes from sucrose and 25% comes from HTS, 50% comes from sucrose and 50% comes from HTS, 25% comes from sucrose and 75% comes from HTS, respectively.
HTS ((0.0 mg/mL, 0.008 mg/mL, 0.023 mg/mL and 0.064 mg/mL) and sucrose (10% w/w, 7.5% w/w, 5% w/w, and 2.5% w/w (respectively)) were added to a lemon/lime soda. The sweetener mixture was compared to a control with only sucrose added to the matrix. The sweetener mix was expected to be as sweet as or sweeter than the sucrose control for this matrix. Of total perceived sweetness intensity in each of the experimental samples in Table 12, 75% comes from sucrose and 25% comes from HTS, 50% comes from sucrose and 50% comes from HTS, 25% comes from sucrose and 75% comes from HTS, respectively.
HTS ((0.0 mg/mL, 0.005 mg/mL, 0.007 mg/mL and 0.010 mg/mL) and sucrose (4% w/w, 3.0% w/w, 2% w/w, and 1.0% w/w (respectively)) were added to an unsweetened almond milk. The sweetener mixture was compared to a control with only sucrose added to the matrix. The sweetener mix was expected to be as sweet as or sweeter than the control for this matrix. Of total perceived sweetness intensity in each of the experimental samples in Table 13, 75% comes from sucrose and 25% comes from HTS, 50% comes from sucrose and 50% comes from HTS, 25% comes from sucrose and 75% comes from HTS, respectively.
HTS ((0.0 mg/mL, 0.008 mg/mL, 0.023 mg/mL and 0.064 mg/mL) and sucrose (45% w/w, 33.8% w/w, 23% w/w, and 11.3% w/w (respectively)) were added to a chocolate spread. The sweetener mixture was compared to a control with only sucrose added to the matrix. The sweetener mix was expected to be as sweet as or sweeter than the control for this matrix. Of total perceived sweetness intensity in each of the experimental samples in Table 14, 75% comes from sucrose and 25% comes from HTS, 50% comes from sucrose and 50% comes from HTS, 25% comes from sucrose and 75% comes from HTS, respectively.
HTS ((0.0 mg/mL, 0.007 mg/mL, 0.015 mg/mL and 0.035 mg/mL) and erythritol (11.43% w/w, 8.57% w/w, 5.71% w/w, and 2.86% w/w (respectively)) were added to a citric acid solution. The sweetener mixture was compared to a control with only erythritol added to the matrix. The sweetener mix was expected to be as sweet as or sweeter than the control for this matrix. Of total perceived sweetness intensity in each of the experimental samples in Table 15, 75% comes from erythritol and 25% comes from HTS, 50% comes from erythritol and 50% comes from HTS, 25% comes from erythritol and 75% comes from HTS, respectively.

perception of the flavor = experiment: Tasting of HTS flavor modifying compositions in a mock beverage matrix; format: in vivo, human; conditions: pH about 3, 0.25% w/w lemon/lime flavor, HTS 0.004 mg/mL
Description: HTS (0.004 mg/mL) and sucrose (10% w/w concentration) were added to a mock beverage matrix (citric acid, a flavor and carbonation). […] HTS and sucrose were added to hit a target of 10% w/w sucrose equivalent sweetness. The HTS/sucrose mixture was compared to an unsweetened control, an unsweetened control+0.004 mg/mL HTS, and a sucrose sweetened control (10% w/w concentration of sucrose).
(§1) HTS (0.004 mg/mL) and erythritol (13.3% w/w concentration) were added to a mock beverage matrix (citric acid, a flavor, and carbonation). […] HTS and erythritol were added to hit a target of 10% w/w sucrose equivalent sweetness. The HTS/erythritol mixture was compared to an unsweetened control, an unsweetened control+0.004 mg/mL HTS, and an erythritol sweetened control (13.3% w/w concentration).
as §1, with “sucralose (0.0387%” for “erythritol (13.3%”, “sucralose” for “erythritol”, “HTS/sucralose” for “HTS/erythritol”, “a sucralose” for “an erythritol”, “(0.0387%” for “(13.3%”
HTS (0.004 mg/mL) and stevia (0.0395% w/w concentration) were added to a mock beverage matrix (citric acid, a flavor, and carbonation). […] HTS and stevia were added to hit a target of 10% w/w sucrose equivalent sweetness. […]

sweet taste response = experiment: Concentration-response functions for sweet taste (Opertech Bio); format: in vivo; conditions: for Relative to Sucrose (mM): equivalency to sucrose on a molar basis; for Relative to Sucrose (mg/ml): equivalency to sucrose on a weight basis; for EC50: half-maximal sweet taste response
Description: Each data point in the curves for mycodulcein, aspartame, thaumatin, rebaudioside A was calculated as the average across 32 replicates and averaged across 16 replicates for the sucrose curve; error bars are SEM. Points for water and sucrose controls were similarly calculated as the average across 128 and 64 replicates, respectively. Curves were fit by non-linear regression.
Opertech Bio (Philadelphia, PA) performed a quantitative characterization of the concentration-dependence of the taste properties of the purified his-tagged mycodulcein HTS (SEQ ID NO:141 with His-tag, SEQ ID NO:142) obtained from E. coli as described in Example 5 and purified as described in Example 4. The sweet-taste potency and relative efficacy of mycodulcein (HTS) was compared with sucrose and with other sweeteners thaumatin, rebaudioside A, and aspartame. Control standards were solutions of 200 mM sucrose, 100 mM NaCl, 0.5 mM quinine, and 10 mM citric acid. […] Each data point in the curves for mycodulcein, aspartame, thaumatin, and rebaudioside A was calculated as the average across 32 replicates and averaged across 16 replicates for the sucrose curve; error bars are SEM. Points for water and sucrose controls were similarly calculated as the average across 128 and 64 replicates, respectively. Curves were fit by non-linear regression.
The concentrations that elicit half-maximal sweet taste response (EC50s, or potencies) were derived from the nonlinear regression. […] Also provided are the equivalencies to sucrose on a molar basis and on a weight basis.

sweet sensation = experiment: CATA time intensity of the sweet sensation in water; format: in vivo, human
Description: Evaluation of thaumatin, sucrose, and his-tagged mycodulcein (HTS) was carried out using a CATA (click all that apply) time intensity of the sweet sensation of named analytes in water at 0.045 mg/mL for proteins and 10% sucrose. Methodology: Time Intensity Technique; Data collection software: EyeQuestion, responses recorded every 2.57 seconds; Scaling Method: a 15-point sweet scale, e.g., score 5=5% sucrose, score 10=10% sucrose; Evaluation Protocol: small volume sip, tilt and spit test. There were 3-6 panelists and 2 replicates. All samples were blinded and presented with randomized 3-digit codes. Training Strategies: An intense training on sweet scale over 6 weeks on 15-point sweet scale to confidently assign sweet values. Due to unique sweet behavioral patterns, it is necessary to train time intensity principles over 3 weeks. Samples were tasted with a stopwatch to note times and help reach a consensus. # of Panelists: 3-6, # of replications: 2. All samples were blinded and presented with randomized 3-digit codes. Statistical analysis: due to the small # of panelists, a statistical analysis cannot be performed.

[2] = nonlinear regression, read-out: EC50 (molar units)

In the case of “brazzein (QDKCKKVYENYPVSKCQLANQCNYDCKLDKHARSGECFYDEKRNLQCICDYCEY; UniProt P56552 1-54, looked up) [sweet protein]”, the “times sweeter than sucrose on a gram basis” value (sweet taste; background) is given as 500 times.

With `OC[C@@H](O)[C@@H](O)CO` [Erythritol, erythritol] the Observations ([1]; chocolate spread, erythritol w/w / HTS mg/mL: control 45%/0.0, 75/25 33.8%/0.008, 50/50 23%/0.023, 25/75 11.3%/0.064) was “Brief initial sweetness, mouth cooling, cocoa”, the Observations ([1]; citric acid solution, erythritol w/w / HTS mg/mL: control 11.43%/0, 75/25 8.57%/0.007, 50/50 5.71%/0.015, 25/75 2.86%/0.035) was “Reduced sour intensity compared to sucrose” and the Observations ([1]; lemon/lime soda, erythritol w/w / HTS mg/mL: control 13.30%/0.0, 75/25 9.31%/0.008, 50/50 6.90%/0.023, 25/75 3.10%/0.064) was “Reduced citrus flavor intensity. Strong mouth”. For the same compound, the Observations (perception of the flavor; erythritol 13.30% w/w) was “More sour, bitter, mineral, mouth drying,” and the “potency curve multiplier relative to sucrose” value (sweet taste) was 0.7 ×.

In the case of `OC[C@H]1O[C@@](CO)(O[C@H]2O[C@H](CO)[C@@H](O)[C@H](O)[C@H]2O)[C@@H](O)[C@@H]1O` [SUC, sucrose], the Observations ([1]; almond milk, sucrose w/w / HTS mg/mL: control 4%/0.0, 75/25 3.0%/0.005, 50/50 2%/0.007, 25/75 1.0%/0.010) is reported as “Pleasantly sweetened almond milk, creamy”, the Observations ([1]; citric acid solution, sucrose w/w / HTS mg/mL: control 8%/0.0, 75/25 6%/0.007, 50/50 4%/0.015, 25/75 2%/0.035) is reported as “Reminiscent of sweet dessert and ice” and the Observations ([1]; lemon/lime soda, sucrose w/w / HTS mg/mL: control 10%/0.0, 75/25 7.5%/0.008, 50/50 5%/0.023, 25/75 2.5%/0.064) is reported as “Good, sweet to sour balance and pleasant”.

In the case of `O=C(CO)C(O)C(O)C(O)CO` (stereo not shown) [Allulose, allulose], the Observations ([1]; lemon/lime soda, allulose w/w / HTS mg/mL: control 14.3%/0.0, 50/50 7.14%/0.023) is given as “Muted citrus flavor and sweetness intensity” and the “potency curve multiplier relative to sucrose” value (sweet taste) is given as 0.7 ×.

In the case of `C=C1C[C@@]23CC[C@H]4[C@@](C)(CCC[C@@]4(C)C(=O)O[C@@H]4O[C@H](CO)[C@@H](O)[C@H](O)[C@H]4O)[C@@H]2CC[C@]1(O[C@@H]1O[C@H](CO)[C@@H](O)[C@H](O[C@@H]2O[C@H](CO)[C@@H](O)[C@H](O)[C@H]2O)[C@H]1O[C@@H]1O[C@H](CO)[C@@H](O)[C@H](O)[C@H]1O)C3` [REB, rebaudioside A], the “Relative to Sucrose (mM)” value (sweet taste response) is reported as 857, the “Relative to Sucrose (mg/ml)” value (sweet taste response) is reported as 300 and the “EC50” value (sweet taste response) is reported as 41.1 µg/mL. It also gave an EC50 (sweet taste response; [2]) of 42 µM.

With `OC[C@H]1O[C@H](O[C@]2(CCl)O[C@H](CCl)[C@@H](O)[C@@H]2O)[C@H](O)[C@@H](O)[C@H]1Cl` [Sucralose, sucralose] the Observations ([1]; almond milk, sucralose w/w / HTS mg/mL: control 0.0053%/0.0, 75/25 0.0037%/0.005, 50/50 0.0023%/0.007, 25/75 0.0011%/0.010) was “Pleasantly sweetened almond milk. Little”, the Observations ([1]; chocolate spread, sucralose w/w / HTS mg/mL: control 0.0387%/0.0, 75/25 0.0247%/0.008, 50/50 0.0096%/0.023, 25/75 0.0030%/0.064) was “Reduced cocoa flavor intensity compared to sucrose” and the Observations ([1]; citric acid solution, sucralose w/w / HTS mg/mL: control 0.0170%/0.0, 75/25 0.0100%/0.007, 50/50 0.0053%/0.015, 25/75 0.0023%/0.035) was “Intense initial sweetness that overpowers acidity”. For the same compound, the Observations ([1]; lemon/lime soda, sucralose w/w / HTS mg/mL: control 0.0387%/0.0, 75/25 0.0247%/0.008, 50/50 0.0096%/0.023, 25/75 0.0030%/0.064) was “Intense initial sourness. Strong sweet aftertaste” and the Observations (perception of the flavor; sucralose 0.0387% w/w) was “Sweet linger, little flavor carry over”.

In the case of monellin, the “times sweeter than sucrose on a molar basis” value (sweet taste; background) is listed as 100,000 times.

For thaumatin [THN], the “Relative to Sucrose (mM)” value (sweet taste response) was 120000, the “Relative to Sucrose (mg/ml)” value (sweet taste response) was 1865 and the “EC50” value (sweet taste response) was 6.6 µg/mL. For the same compound, the EC50 (sweet taste response; [2]) was 0.3 µM, the “intensity when sucrose reaches threshold level” value (sweet sensation; 0.045 mg/mL in water) was “low-moderate intensity” and the “slope of time intensity curve” value (sweet sensation; 0.045 mg/mL in water vs 10% sucrose, longer peak time and more gradual/longer decline) was “flatter slope”. For the same compound, the “maximum intensity (Imax) higher than sucrose” value (sweet sensation; 0.045 mg/mL protein in water vs 10% sucrose) was “approximately 1 point on the 15 point scale”, the “potency, sweeter than sucrose on a molar basis” value (sweet sensation; time intensity experiment) was “approximately 120,000 ×” and the “potency, sweeter than sucrose on a weight basis” value (sweet sensation; time intensity experiment) was about 3000 ×. For the same compound, the “times sweeter than sucrose on a gram basis” value (sweet taste; background) was 3000 times.
